Measurements from patent US11932609B1 (priority 2023, dated 2024).

Test system: multidrug-resistant (MDR) strains of Mycobacterium tuberculosis
Format: cell-based
Details: MDR-TB, drug resistance at least to isoniazid and rifampicin; REMA, Middlebrook 7H9 broth, 8 days at 37° C. plus overnight with resazurin

| Compound | Anti-tubercular activity against Mycobacterium tuberculosis MDR (MIC) |
| --- | --- |
| CCOC(=O)C1=C(C)NC(Nc2ccc(Br)cc2C#N)=NC1c1ccc(F)cc1 (centres unmarked) [DHPM-KNV6, Ethyl 2-((4-bromo-2-cyanophenyl)amino)-4-(4-fluorophenyl)-6-methyl-1,4-dihydropyrimidine-5-carboxylate] | No activity |
| CCOC(=O)C1=C(C)NC(Nc2ccccc2I)=NC1c1ccc(F)cc1 (centres unmarked) [DHPM-KNV8, Ethyl 4-(4-fluorophenyl)-2-((2-iodophenyl)amino)-6-methyl-1,4-dihydropyrimidine-5-carboxylate] | No activity |
